Experimental data from patent US20230085307A1, “PYRIDAZINONE COMPOUND AND HERBICIDE” (NISSAN CHEMICAL CORPORATION, priority 2019, published 2023).

Columns and labels:
Italian ryegrass [1] = assay: Test Example 4: herbicidal effect by soil treatment (Table 19, symbol K); format: in vivo, Italian ryegrass (Lolium multiflorum)
Method in brief: (§1)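 Seeds were sown in sterilized diluvial soil and covered with about 1.5 cm of soil. An emulsion formulation diluted with water to a predetermined herbicide amount was sprayed evenly onto the soil surface. Plants grew in a greenhouse at 25° C. to 30° C., and the effect was scored three weeks after application using criteria from an earlier test.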

chickweed [2] = assay: Test Example 4: herbicidal effect by soil treatment (Table 19, symbol P); format: in vivo, common chickweed (Stellaria media)
Method in brief: as §1

Chinese sprangletop = assay: Test Example 3: herbicidal effect by foliage application, Wagner pot (Table 18, symbol D); format: in vivo, chinese sprangletop (Leptochloa chinensis); conditions: 320 g/ha
Method in brief: (§2)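 Plants were sown in alluvial soil held under 0.1–0.5 cm standing water and grown 14 days in a greenhouse at 25–30 °C. An emulsifiable formulation, water-diluted to the set dose, was then sprayed onto the foliage, and effects were scored three weeks later using previously defined criteria.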

persian speedwell [3] = assay: Test Example 4: herbicidal effect by soil treatment (Table 19, symbol R); format: in vivo, Persian speedwell (Veronica persica)
Method in brief: as §1

velvetleaf [4] = assay: Test Example 4: herbicidal effect by soil treatment (Table 19, symbol M); format: in vivo, velvetleaf (Abutilon theophrasti)
Method in brief: as §1

barnyard grass [5] = assay: Test Example 3: herbicidal effect by foliage application, Wagner pot (Table 18, symbol H); format: in vivo, barnyard grass (Echinochloa crus-galli); conditions: 320 g/ha
Method in brief: as §2

barnyard grass [6] = assay: Test Example 4: herbicidal effect by soil treatment (Table 19, symbol H); format: in vivo, barnyard grass (Echinochloa crus-galli)
Method in brief: as §1

wild oat [7] = assay: Test Example 4: herbicidal effect by soil treatment (Table 19, symbol I); format: in vivo, wild oat (Avena fatua)
Method in brief: as §1

barnyard grass [8] = assay: Test Example 5: herbicidal effect by foliage application, plastic box (Table 20, symbol H); format: in vivo, barnyard grass (Echinochloa crus-galli); conditions: foliage application, three weeks after application
Method in brief: (§3)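 Plants sown in sterilized diluvial soil and grown 14 days in a greenhouse at 25° C to 30° C, then sprayed on the foliage with the compound's emulsion diluted in water to a predetermined herbicide amount. Injury to weeds and crops scored three weeks after application on a visual rating scale.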

windgrass [9] = assay: Test Example 5: herbicidal effect by foliage application, plastic box (Table 20, symbol L); format: in vivo, windgrass (Apera spica-venti); conditions: foliage application, three weeks after application
Method in brief: as §3

blackgrass [10] = assay: Test Example 4: herbicidal effect by soil treatment (Table 19, symbol J); format: in vivo, blackgrass (Alopecurus myosuroides)
Method in brief: as §1

green foxtail [11] = assay: Test Example 5: herbicidal effect by foliage application, plastic box (Table 20, symbol G); format: in vivo, green foxtail (Setaria viridis); conditions: foliage application, three weeks after application
Method in brief: as §3

windgrass [12] = assay: Test Example 4: herbicidal effect by soil treatment (Table 19, symbol L); format: in vivo, windgrass (Apera spica-venti)
Method in brief: as §1

wild oat [13] = assay: Test Example 5: herbicidal effect by foliage application, plastic box (Table 20, symbol I); format: in vivo, wild oat (Avena fatua); conditions: foliage application, three weeks after application
Method in brief: as §3

velvetleaf [14] = assay: Test Example 5: herbicidal effect by foliage application, plastic box (Table 20, symbol M); format: in vivo, velvetleaf (Abutilon theophrasti); conditions: foliage application, three weeks after application
Method in brief: as §3

green foxtail [15] = assay: Test Example 4: herbicidal effect by soil treatment (Table 19, symbol G); format: in vivo, green foxtail (Setaria viridis)
Method in brief: as §1

lambsquarters [16] = assay: Test Example 5: herbicidal effect by foliage application, plastic box (Table 20, symbol O); format: in vivo, lambsquarters (Chenopodium album); conditions: foliage application, three weeks after application
Method in brief: as §3

southern crabgrass [17] = assay: Test Example 4: herbicidal effect by soil treatment (Table 19, symbol F); format: in vivo, southern crabgrass (Digitaria ciliaris)
Method in brief: as §1

Italian ryegrass [18] = assay: Test Example 5: herbicidal effect by foliage application, plastic box (Table 20, symbol K); format: in vivo, Italian ryegrass (Lolium multiflorum); conditions: foliage application, three weeks after application
Method in brief: as §3

lambsquarters [19] = assay: Test Example 4: herbicidal effect by soil treatment (Table 19, symbol O); format: in vivo, lambsquarters (Chenopodium album)
Method in brief: as §1

redroot pigweed [20] = assay: Test Example 4: herbicidal effect by soil treatment (Table 19, symbol N); format: in vivo, redroot pigweed (Amaranthus retroflexus)
Method in brief: as §1

redroot pigweed [21] = assay: Test Example 5: herbicidal effect by foliage application, plastic box (Table 20, symbol N); format: in vivo, redroot pigweed (Amaranthus retroflexus); conditions: foliage application, three weeks after application
Method in brief: as §3

persian speedwell [22] = assay: Test Example 5: herbicidal effect by foliage application, plastic box (Table 20, symbol R); format: in vivo, Persian speedwell (Veronica persica); conditions: foliage application, three weeks after application
Method in brief: as §3

rice flat sedge = assay: Test Example 3: herbicidal effect by foliage application, Wagner pot (Table 18, symbol E); format: in vivo, rice flat sedge (Cyperus iria); conditions: 320 g/ha
Method in brief: as §2

southern crabgrass [23] = assay: Test Example 5: herbicidal effect by foliage application, plastic box (Table 20, symbol F); format: in vivo, southern crabgrass (Digitaria ciliaris); conditions: foliage application, three weeks after application
Method in brief: as §3

blackgrass [24] = assay: Test Example 5: herbicidal effect by foliage application, plastic box (Table 20, symbol J); format: in vivo, blackgrass (Alopecurus myosuroides); conditions: foliage application, three weeks after application
Method in brief: as §3

chickweed [25] = assay: Test Example 5: herbicidal effect by foliage application, plastic box (Table 20, symbol P); format: in vivo, common chickweed (Stellaria media); conditions: foliage application, three weeks after application
Method in brief: as §3

[26] = amount of applied herbicide 320 g/ha

CCCC(=O)Oc1c(C)nn(C)c(=O)c1-c1c(-c2ccc(OCC)nc2)sc2ccccc12 [1-077]
herbicidal effect rating, K: Italian ryegrass (Italian ryegrass [1]; [26]): 0 (Herbicidal rate of 5% or less (almost no effect)) | herbicidal effect rating, P: chickweed (chickweed [2]; [26]): 4 (Herbicidal rate of 70% or more and less than 90%) | herbicidal effect on D (Chinese sprangletop), rating 0-5 (Chinese sprangletop): 1 (Herbicidal rate of 5% or more and less than 20%) | herbicidal effect rating, R: persian speedwell (persian speedwell [3]; [26]): 4 (Herbicidal rate of 70% or more and less than 90%) | herbicidal effect rating, M: velvetleaf (velvetleaf [4]; [26]): 0 (Herbicidal rate of 5% or less (almost no effect)) | herbicidal effect on H (barnyard grass), rating 0-5 (barnyard grass [5]): 4 (Herbicidal rate of 70% or more and less than 90%) | herbicidal effect rating, H: barnyard grass (barnyard grass [6]; [26]): 0 (Herbicidal rate of 5% or less (almost no effect)) | herbicidal effect rating, I: wild oat (wild oat [7]; [26]): 0 (Herbicidal rate of 5% or less (almost no effect)) | herbicidal effect grade, H: barnyard grass (barnyard grass [8]; 320 g/ha): 2 (Herbicidal rate of 20% or more and less than 40%) | herbicidal effect grade, L: windgrass (windgrass [9]; 320 g/ha): 0 (Herbicidal rate of 5% or less (almost no effect)) | herbicidal effect rating, J: blackgrass (blackgrass [10]; [26]): 0 (Herbicidal rate of 5% or less (almost no effect)) | herbicidal effect grade, G: green foxtail (green foxtail [11]; 320 g/ha): 1 (Herbicidal rate of 5% or more and less than 20%) | herbicidal effect rating, L: windgrass (windgrass [12]; [26]): 0 (Herbicidal rate of 5% or less (almost no effect)) | herbicidal effect grade, I: wild oat (wild oat [13]; 320 g/ha): 1 (Herbicidal rate of 5% or more and less than 20%) | herbicidal effect grade, M: velvetleaf (velvetleaf [14]; 320 g/ha): 4 (Herbicidal rate of 70% or more and less than 90%) | herbicidal effect rating, G: green foxtail (green foxtail [15]; [26]): 0 (Herbicidal rate of 5% or less (almost no effect)) | herbicidal effect grade, O: lambsquarters (lambsquarters [16]; 320 g/ha): 0 (Herbicidal rate of 5% or less (almost no effect)) | herbicidal effect rating, F: southern crabgrass (southern crabgrass [17]; [26]): 0 (Herbicidal rate of 5% or less (almost no effect)) | herbicidal effect grade, K: Italian ryegrass (Italian ryegrass [18]; 320 g/ha): 1 (Herbicidal rate of 5% or more and less than 20%) | herbicidal effect rating, O: lambsquarters (lambsquarters [19]; [26]): 0 (Herbicidal rate of 5% or less (almost no effect)) | herbicidal effect rating, N: redroot pigweed (redroot pigweed [20]; [26]): 0 (Herbicidal rate of 5% or less (almost no effect)) | herbicidal effect grade, N: redroot pigweed (redroot pigweed [21]; 320 g/ha): 0 (Herbicidal rate of 5% or less (almost no effect)) | herbicidal effect grade, R: persian speedwell (persian speedwell [22]; 320 g/ha): 5 (Herbicidal rate of 90% or more (almost completely withered)) | herbicidal effect on E (rice flat sedge), rating 0-5 (rice flat sedge): 4 (Herbicidal rate of 70% or more and less than 90%) | herbicidal effect grade, F: southern crabgrass (southern crabgrass [23]; 320 g/ha): 0 (Herbicidal rate of 5% or less (almost no effect)) | herbicidal effect grade, J: blackgrass (blackgrass [24]; 320 g/ha): 1 (Herbicidal rate of 5% or more and less than 20%) | herbicidal effect grade, P: chickweed (chickweed [25]; 320 g/ha): 3 (Herbicidal rate of 40% or more and less than 70%)

Cc1nn(C)c(=O)c(-c2c(-c3ccccc3OCC(F)F)sc3ccccc23)c1O [1-116]
K: Italian ryegrass, herbicidal effect rating (Italian ryegrass [1]; AAH 320 g/ha): 0 (Herbicidal rate of 5% or less (almost no effect)) | P: chickweed, herbicidal effect rating (chickweed [2]; AAH 320 g/ha): 5 (Herbicidal rate of 90% or more (almost completely withered)) | herbicidal effect on D (Chinese sprangletop), rating 0-5 (Chinese sprangletop): 2 (Herbicidal rate of 20% or more and less than 40%) | R: persian speedwell, herbicidal effect rating (persian speedwell [3]; AAH 320 g/ha): 5 (Herbicidal rate of 90% or more (almost completely withered)) | M: velvetleaf, herbicidal effect rating (velvetleaf [4]; AAH 320 g/ha): 2 (Herbicidal rate of 20% or more and less than 40%) | herbicidal effect on H (barnyard grass), rating 0-5 (barnyard grass [5]): 5 (Herbicidal rate of 90% or more (almost completely withered)) | H: barnyard grass, herbicidal effect rating (barnyard grass [6]; AAH 320 g/ha): 0 (Herbicidal rate of 5% or less (almost no effect)) | I: wild oat, herbicidal effect rating (wild oat [7]; AAH 320 g/ha): 1 (Herbicidal rate of 5% or more and less than 20%) | H: barnyard grass, herbicidal effect (barnyard grass [8]; AAH 320 g/ha): 4 (Herbicidal rate of 70% or more and less than 90%) | L: windgrass, herbicidal effect (windgrass [9]; AAH 320 g/ha): 5 (Herbicidal rate of 90% or more (almost completely withered)) | J: blackgrass, herbicidal effect rating (blackgrass [10]; AAH 320 g/ha): 1 (Herbicidal rate of 5% or more and less than 20%) | G: green foxtail, herbicidal effect (green foxtail [11]; AAH 320 g/ha): 5 (Herbicidal rate of 90% or more (almost completely withered)) | L: windgrass, herbicidal effect rating (windgrass [12]; AAH 320 g/ha): 3 (Herbicidal rate of 40% or more and less than 70%) | I: wild oat, herbicidal effect (wild oat [13]; AAH 320 g/ha): 4 (Herbicidal rate of 70% or more and less than 90%) | M: velvetleaf, herbicidal effect (velvetleaf [14]; AAH 320 g/ha): 5 (Herbicidal rate of 90% or more (almost completely withered)) | G: green foxtail, herbicidal effect rating (green foxtail [15]; AAH 320 g/ha): 0 (Herbicidal rate of 5% or less (almost no effect)) | O: lambsquarters, herbicidal effect (lambsquarters [16]; AAH 320 g/ha): 4 (Herbicidal rate of 70% or more and less than 90%) | F: southern crabgrass, herbicidal effect rating (southern crabgrass [17]; AAH 320 g/ha): 0 (Herbicidal rate of 5% or less (almost no effect)) | K: Italian ryegrass, herbicidal effect (Italian ryegrass [18]; AAH 320 g/ha): 2 (Herbicidal rate of 20% or more and less than 40%) | O: lambsquarters, herbicidal effect rating (lambsquarters [19]; AAH 320 g/ha): 3 (Herbicidal rate of 40% or more and less than 70%) | N: redroot pigweed, herbicidal effect rating (redroot pigweed [20]; AAH 320 g/ha): 5 (Herbicidal rate of 90% or more (almost completely withered)) | N: redroot pigweed, herbicidal effect (redroot pigweed [21]; AAH 320 g/ha): 5 (Herbicidal rate of 90% or more (almost completely withered)) | R: persian speedwell, herbicidal effect (persian speedwell [22]; AAH 320 g/ha): 5 (Herbicidal rate of 90% or more (almost completely withered)) | herbicidal effect on E (rice flat sedge), rating 0-5 (rice flat sedge): 4 (Herbicidal rate of 70% or more and less than 90%) | F: southern crabgrass, herbicidal effect (southern crabgrass [23]; AAH 320 g/ha): 4 (Herbicidal rate of 70% or more and less than 90%) | J: blackgrass, herbicidal effect (blackgrass [24]; AAH 320 g/ha): 4 (Herbicidal rate of 70% or more and less than 90%) | P: chickweed, herbicidal effect (chickweed [25]; AAH 320 g/ha): 5 (Herbicidal rate of 90% or more (almost completely withered))
